Results reported in US4491631A, “Assay method for lipid component, assay composition, and process for production of enzyme used therefor” (Toyo Jozo Kabushiki Kaisha, priority 1981, dated 1985).

Experiments:
Format in all cases: biochemical, Pseudomonas fragi B-0771
[1] = molecular target: T1, 3-hydroxyacyl-CoA dehydrogenase activity of multi-active enzyme (Pseudomonas fragi, UniProt P28793); experiment: Substrate specificity of 3-hydroxyacyl-CoA dehydrogenase activity; conditions: 3-hydroxyacyl-CoA used as substrate of 3-hydroxyacyl-CoA dehydrogenase activity
T1 construct: Crude enzyme was prepared from microbial cells of Pseudomonas fragi B-0771; endogenous in cells; host or cells: Pseudomonas fragi B-0771 FERM-P No. 5701 (enzyme extracted with lysozyme and purified from its own cells, not recombinant)
T1 sequence (P28793 whole entry): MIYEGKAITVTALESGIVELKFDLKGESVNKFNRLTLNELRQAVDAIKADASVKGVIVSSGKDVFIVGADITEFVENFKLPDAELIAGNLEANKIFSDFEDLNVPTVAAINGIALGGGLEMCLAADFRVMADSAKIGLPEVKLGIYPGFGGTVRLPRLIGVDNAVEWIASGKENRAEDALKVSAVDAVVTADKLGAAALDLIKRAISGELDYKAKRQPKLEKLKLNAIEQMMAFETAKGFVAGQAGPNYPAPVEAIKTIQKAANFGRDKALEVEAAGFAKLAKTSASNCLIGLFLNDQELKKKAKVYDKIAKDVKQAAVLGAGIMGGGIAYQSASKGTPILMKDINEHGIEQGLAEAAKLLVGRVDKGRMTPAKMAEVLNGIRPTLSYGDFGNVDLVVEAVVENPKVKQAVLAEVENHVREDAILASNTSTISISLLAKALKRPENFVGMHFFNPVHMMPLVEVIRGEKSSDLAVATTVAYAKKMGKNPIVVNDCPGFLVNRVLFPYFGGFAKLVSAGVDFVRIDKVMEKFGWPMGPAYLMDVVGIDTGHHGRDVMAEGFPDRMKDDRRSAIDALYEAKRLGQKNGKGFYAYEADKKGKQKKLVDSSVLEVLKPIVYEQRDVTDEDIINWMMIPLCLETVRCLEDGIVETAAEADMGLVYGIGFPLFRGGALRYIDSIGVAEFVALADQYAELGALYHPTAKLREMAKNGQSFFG
T1 sequence (P28790 whole entry partner): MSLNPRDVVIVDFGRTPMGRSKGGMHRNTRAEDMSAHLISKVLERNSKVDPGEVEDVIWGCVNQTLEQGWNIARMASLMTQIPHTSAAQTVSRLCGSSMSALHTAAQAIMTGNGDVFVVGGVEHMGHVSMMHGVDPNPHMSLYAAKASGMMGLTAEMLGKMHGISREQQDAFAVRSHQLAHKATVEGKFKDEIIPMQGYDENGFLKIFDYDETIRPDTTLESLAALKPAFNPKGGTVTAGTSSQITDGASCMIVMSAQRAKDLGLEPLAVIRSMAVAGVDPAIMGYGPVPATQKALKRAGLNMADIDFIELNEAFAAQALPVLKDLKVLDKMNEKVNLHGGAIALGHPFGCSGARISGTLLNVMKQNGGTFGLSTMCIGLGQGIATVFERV
Description: (§1) The enzyme solution (50 μl) was added to the above reaction mixture, which was preincubated at 27° C. for 2 minutes, and the mixture was incubated at 37° C. for 10 minutes. 0.5% sodium dodecyl sulfate (2.0 ml) was added to stop the reaction and the absorbency was measured at 550 nm (ΔA550) One unit (1 U) is defined as the amount of enzyme which generates 1 μmole of reduced NAD in one minute. Enzyme activity is defined by the following equation: [formula] (c) Assay method of 3-ketoacyl-CoA thiolase activity:
3-hydroxyacyl-CoA dehydrogenase activity was measured by using the following embodiments of 3-hydroxyacyl-CoA: […]

[2] = molecular target: T1, 3-hydroxyacyl-CoA dehydrogenase activity of multi-active enzyme; experiment: Effect of metal ions on 3-hydroxyacyl-CoA dehydrogenase activity; conditions: 1 mM metal ion; control 100; 10 min
Description: as §1
(9) Effect of metal ions:
The effect of metal ions was measured on 3-hydroxyacyl-CoA dehydrogenase activity.

[3] = molecular target: T1, 3-hydroxyacyl-CoA dehydrogenase activity of multi-active enzyme; experiment: Effect of surface active agents on 3-hydroxyacyl-CoA dehydrogenase activity; conditions: 10 min, 0.1% surface active agent, control 100; for activity at 0.1 %: read-out: Relative activity
Description: as §1
(10) Effect of surface active agents:
The effect of surface active agents was measured on 3-hydroxyacyl-CoA dehydrogenase activity.

Molecule: CCCCCCCCCCCCCCCCCC(O)CC(=O)SCCNC(=O)CCNC(=O)[C@H](O)C(C)(C)COP(=O)(O)OP(=O)(O)OC[C@H]1O[C@@H](n2cnc3c(N)ncnc32)[C@H](O)[C@@H]1OP(=O)(O)O (some centres unmarked) [3-hydroxyarachidoyl-CoA]
- Relative activity [1]: 9.5%

Molecule: CCCC(O)CC(=O)SCCNC(=O)CCNC(=O)[C@H](O)C(C)(C)COP(=O)(O)OP(=O)(O)OC[C@H]1O[C@@H](n2cnc3c(N)ncnc32)[C@H](O)[C@@H]1OP(=O)(O)O (some centres unmarked) [3-hydroxycaproyl-CoA]
- Relative activity [1]: 56.5%

Molecule: CCCCCCCC(O)CC(=O)SCCNC(=O)CCNC(=O)[C@H](O)C(C)(C)COP(=O)(O)OP(=O)(O)OC[C@H]1O[C@@H](n2cnc3c(N)ncnc32)[C@H](O)[C@@H]1OP(=O)(O)O (some centres unmarked) [3-hydroxycapryl-CoA]
- Relative activity [1]: 99.0%

Molecule: CCCCCC(O)CC(=O)SCCNC(=O)CCNC(=O)[C@H](O)C(C)(C)COP(=O)(O)OP(=O)(O)OC[C@H]1O[C@@H](n2cnc3c(N)ncnc32)[C@H](O)[C@@H]1OP(=O)(O)O (some centres unmarked) [3-hydroxycaprylyl-CoA]
- Relative activity [1]: 88.1%

Molecule: CCCCCCCCCC(O)CC(=O)SCCNC(=O)CCNC(=O)[C@H](O)C(C)(C)COP(=O)(O)OP(=O)(O)OC[C@H]1O[C@@H](n2cnc3c(N)ncnc32)[C@H](O)[C@@H]1OP(=O)(O)O (some centres unmarked) [3-hydroxylauryl-CoA]
- Relative activity [1]: 100.0%

Molecule: CC/C=C\C/C=C\C/C=C\CCCCCC(O)CC(=O)SCCNC(=O)CCNC(=O)[C@H](O)C(C)(C)COP(=O)(O)OP(=O)(O)OC[C@H]1O[C@@H](n2cnc3c(N)ncnc32)[C@H](O)[C@@H]1OP(=O)(O)O (some centres unmarked) [3-hydroxylinolenyl-CoA]
- Relative activity [1]: 99.0%

Molecule: CCCCCCCCCCCC(O)CC(=O)SCCNC(=O)CCNC(=O)[C@H](O)C(C)(C)COP(=O)(O)OP(=O)(O)OC[C@H]1O[C@@H](n2cnc3c(N)ncnc32)[C@H](O)[C@@H]1OP(=O)(O)O (some centres unmarked) [3-hydroxymyristoyl-CoA]
- Relative activity [1]: 98.0%

Molecule: CCCCCCCC/C=C\CCCCCC(O)CC(=O)SCCNC(=O)CCNC(=O)[C@H](O)C(C)(C)COP(=O)(O)OP(=O)(O)OC[C@H]1O[C@@H](n2cnc3c(N)ncnc32)[C@H](O)[C@@H]1OP(=O)(O)O (some centres unmarked) [3-hydroxyoleyl-CoA]
- Relative activity [1]: 57.5%

Molecule: CCCCCCCCCCCCCC(O)CC(=O)SCCNC(=O)CCNC(=O)[C@H](O)C(C)(C)COP(=O)(O)OP(=O)(O)OC[C@H]1O[C@@H](n2cnc3c(N)ncnc32)[C@H](O)[C@@H]1OP(=O)(O)O (some centres unmarked) [3-hydroxypalmitoyl-CoA]
- Relative activity [1]: 75.5%

Molecule: CCCCCCCCCCCCCCCC(O)CC(=O)SCCNC(=O)CCNC(=O)[C@H](O)C(C)(C)COP(=O)(O)OP(=O)(O)OC[C@H]1O[C@@H](n2cnc3c(N)ncnc32)[C@H](O)[C@@H]1OP(=O)(O)O (some centres unmarked) [3-hydroxystearyl-CoA]
- Relative activity [1]: 30.5%

Molecule: [Ba+2].[Cl-].[Cl-] [BaCl2]
- Relative activity [2]: 106%

Molecule: [Ca+2].[Cl-].[Cl-] [CaCl 2]
- Relative activity [2]: 113%

Molecule: [Cl-].[Cl-].[Co+2] [CoCl2]
- Relative activity [2]: 34%

Molecule: [Cl][Cu][Cl] [CuCl2]
- Relative activity [2]: 12%

Molecule: [Cl-].[Cl-].[Mg+2] [MgCl2]
- Relative activity [2]: 113%

Molecule: [Cl][Mn][Cl] [MnCl2]
- Relative activity [2]: 32%

Molecule: [Cl][Ni][Cl] [NiCl2]
- Relative activity [2]: 95%

Molecule: [Cl-].[Cl-].[Zn+2] [ZnCl2]
- Relative activity [2]: 25%

Molecule: CCCCCCCCCCCCCCCC[N+](C)(C)C [cetyltrimethylammonium chloride]
- activity at 0.1 % [3]: 0%

Molecule: C[C@H](CCC(=O)O)[C@H]1CC[C@H]2[C@@H]3CC[C@@H]4C[C@H](O)CC[C@]4(C)[C@H]3C[C@H](O)[C@]12C [sodium deoxycholate]
- activity at 0.1 % [3]: 2%

Molecule: CCCCCCCCCCCCOS(=O)(=O)[O-].[Na+] [sodium lauryl sulfate]
- activity at 0.1 % [3]: 0%

Molecule: Triton X-100
- Relative activity [3]: 96%

Molecule: laurylbenzene sulfonate
- Relative activity [3]: 0%
